What was measured:
[1] = tested on: B16F1 melanoma cells; assay: cell surface Fas (CD95) expression on B16F1 melanoma cells; format: cell-based, mouse; conditions: 48 hours
Method: (§1) Cell Surface Staining. Non-permeabilized cells were stained with antibodies to the cell surface receptors Fas (CD95) (Pharmingen) or with antibodies to uncoupling proteins (anti-UCP2 antibody) (Alpha Diagnostic International). Antibodies for both the isotype control and actual stain were added to the cell suspension, mixed, and then placed on ice for and incubation of 25 minutes in the dark. Subsequently the cells were centrifuged at 300×g for 5 minutes and the supernatant removed. The cells were washed one time with 100 μL of PBS/2.5% FBS and then transferred into flow cyotmetric tubes containing 500 μL of PBS/2.5% FBS for analysis.
B16F1 melanoma cells were cultured at a concentration of 0.5 to 1 million cells per ml. Cells were harvested and analyzed by flow cytometry. Dot plots are shown in FIG. 15 as functions of live versus dead cells. Each dot on the dot plot represents one cell. Five thousand cells were assessed for forward scatter (FS), as a function of cell size, versus side scatter (SS), as a function of cellular granularity. […]
Referring to FIGS. 17 and 18, B16F1 melanoma cells of Example 12 were untreated or treated with etomoxir at the indicated concentrations for 48 hours. Cells were harvested, stained with fluorochrome conjugated anti-Fas antibody (Pharmingen) and analyzed by flow cytometry.

[2] = tested on: drug resistant L1210/DDP cells; assay: cell-surface Fas expression by flow cytometry, L1210/DDP; format: cell-based
Method: as §1
Geometric Mean Fluorescence. When analyzing data on Cell Quest software, a geometric mean value will be given for each histogram plotted. Once the stained sample was plotted against the control (isotype or unstained), geometric mean fluorescence values were obtained for both histogram peaks. The stained control sample value was subtracted from sample to identify the actual fluorescence of the stained sample over that of the control.
Drug sensitive L1210 cells and drug resistant L1210/DDP cells were cultured with etomoxir for 24 hours (Tx indicates treatment with etomoxir). The level of cell-surface Fas was determined using fluorochrome conjugated anti-Fas antibodies and flow cytometry. The Fas levels are measured relative to a control for staining artifacts. […]

[3] = tested on: HL60 MDR tumor; assay: tumor volume of HL60 MDR tumor implanted in nude mice; format: in vivo; conditions: for tumor volume: 200 ug Etomoxir, 2.5 mM 2-Deoxy-D-glucose
Text: Tumor implantation. Mice were purchased from the Animal Production Program of National Cancer Institute, Frederick, Md. The animals used were Athymic Ncr-nu/nu (strain code 01B74). HL60 MDR cells were harvested and reconstituted at 1 million cells per 100 microliters of phosphate buffered saline. One million tumor cells per injection site were implanted subcutaneously on two sites of the animal's back. Treatments began at exactly seven days post tumor implantation. Tumor size/volume was monitored twice weekly using measurement calipers, with the formula Tumor Volume=π×(short diameter)^2×(long diameter)/6.
Mice experiments with fatty acid metabolism and glucose metabolism inhibitors. Fatty acid metabolism inhibitors were exemplified by etomoxir at 200 micrograms/day. Glucose metabolism inhibitors were exemplified by 2-deoxy-D-glucose at 2.5 mM in 100 microliters daily. The combination was administered daily, etomoxir at 200 micrograms and 2-deoxy-D-glucose at 2.5 mM in 100 microliters. All drugs were administered intra-peritoneally. Fluorouracil, at 20 mg per kilogram mouse, was injected intra-peritoneally once a week
HL60 MDR human leukemia cells were cultured and implanted in nude mice as described above under “Materials and Methods”. The mice were given 200 ug of Etomoxir, 2.5 mM 2-Deoxy-D-glucose, or both 200 ug of Etomoxir and 2.5 mM 2-Deoxy-D-glucose given daily by IP injection. Treatment began exactly one week after tumor implantation.
Mice were purchased from National Cancer Institute, Animal Production Program (Frederick, Md.). The animals used were Athymic Ncr-nu/nu (Strain code 01B74). HL60 MDR cells were harvested and reconstituted at 1 million cells per 100 microliters of phosphate buffered saline. One million tumor cells/per injection site were implanted subcutaneously on two sites of the animal's back. Treatments began at exactly seven days post tumor implantation. Tumor size/volume was monitored twice weekly using measurement calipers with the formula for Tumor Volume=π(short diameter)^2(long diameter)/(divided by )6. […]

CCOC(=O)C1(CCCCCCOc2ccc(Cl)cc2)CO1 (stereo not drawn) [etomoxir, 2-(6-(4-chlorophenoxy)-hexyl)-oxirane-2-carboxylic acid ethyl ester]
cell surface Fas expression ([1]; B16F1 dead cell population, FIG. 18): dose dependent increase in cell surface Fas expression
cell surface Fas expression ([1]; B16F1 live cell population, FIG. 17): dose dependent increase in cell surface Fas expression
cell-surface Fas expression ([2]; L1210/DDP, cultured with etomoxir for 24 hours): significant increases in cell surface Fas
cell surface Fas, combination with methotrexate ([2]; methotrexate-treated L1210 DDP, FIG. 8): promotes increases in cell surface Fas
tumor volume ([3]; Day 7, daily IP from one week after implantation): 36 mm^3
tumor volume ([3]; Day 9, daily IP): 71.73 mm^3
tumor volume ([3]; Day 15, daily IP): 261.35 mm^3
tumor volume ([3]; Day 21, daily IP): 895.09 mm^3
effect on tumor growth ([3]; HL60 MDR in nude mice, 21 day period, single agent): increase in tumor growth

From patent US8293240B2, “Method of treating drug-resistant cancer” (The Regents of the University of Colorado, priority 2004, dated 2012)
